# Counter-ions that a name gives are not always drawn. Like-named read-outs stand apart in the source and are kept apart here.
# Experiments:
# [1] = system: FR-negative human lung carcinoma A549 cells; assay: cells; type: cell-based; conditions: for IC50: read-out: IC50, Inhibition of Cell Growth by the PrestoBlue Method; for inhibition at 10 µM: read-out: Percentage inhibition at the highest concentration tested (10 μM)
# Procedure: (§1) Folate receptor (FR)-positive KB cells (Human) from European Collection of Cell Cultures (ECACC) [Catalogue #94050408] or FR-negative human lung carcinoma A549 cells from American Type Culture Collection (ATCC) [Catalogue # CCL-185] were maintained in T75 flasks in folic acid-free RPMI 1640 medium (Invitrogen, catalogue no. 27016021) containing 10% fetal bovine serum (FBS; Invitrogen, catalogue no. 16140-071) and penicillin/streptomycin (Invitrogen, catalogue no. 15140-122) at 37° C., 5% CO2.
# (§2) Cells were harvested from their maintenance cultures and seeded in 96-well plates at a density of 10000 cells per well in 100 μL folic acid-free RPMI 1640 medium and incubated at 37° C., 5% CO2 for 20-24 hours. Thirty minutes prior to compound treatment, spent medium was removed and replaced with 100 μL fresh folic acid-free RPMI 1640 medium either as such, or supplemented with 100 μmol/L folic acid. The test compounds were diluted to three times their desired final concentrations in the culture medium from their DMSO stocks. […] Following compound treatment, the cells were washed thrice with 100 μL medium and incubated with 180 μL fresh medium for 72 hours. To assess cell viability, 20 μL of PrestoBlue reagent (Invitrogen, catalogue # A-13261) was added to the wells and the plates were further incubated for 1 hour at 37° C. The PrestoBlue reagent contains a cell-permeant dye, resazurin, which is blue in color and virtually nonfluorescent. When added to cells, it is reduced by the mitochondrial enzymes in viable cells to red, highly fluorescent resorufin. Resazurin reduction is proportional to the number of metabolically active cells and therefore can be measured quantitatively. Following incubation with the PrestoBlue reagent for 1 hour, fluorescence corresponding to the resorufin dye was read on a Synergy 4 multimode microplate reader (Biotek Instruments) with the excitation and emission wavelengths set at 540 nm and 590 nm respectively. The data was analysed using XLFit and the percentage inhibition of cell proliferation was calculated.
# [2] = system: Folate receptor (FR)-positive KB cells; assay: cells; type: cell-based, Human; conditions: for IC50: read-out: IC50, Inhibition of Cell Growth by the PrestoBlue Method; for inhibition at 10 µM: KB, read-out: Percentage inhibition at the highest concentration tested (10 μM)
# Procedure: as §1, §2
# [3] = Cleavage study of silyl conjugates at pH 7.4 (THF:0.01 M PBS buffer, 37° C.); type: physicochemical; conditions: THF:0.01 M PBS buffer (pH 7.4), 37° C., over 20 hours
# Procedure: To study the release properties of the silyl conjugates, the conjugates were subject to hydrolysis conditions at both pH 7.4 and pH 4.5 to simulate blood and endosomes/lysosome environments, respectively.
# Example 12 and Example 15 were dissolved in THF:0.01 M PBS buffer (pH 7.4) and heated to 37° C. with stirring for over 20 hours. […] Additionally, Example 11 was trapped with methyl-3-mercaptopropionate to approximate a bioconjugate.
# [4] = Homo sapiens, No FA, incubation 2 h
# [5] = Homo sapiens, No FA, incubation 4 h
# [6] = Homo sapiens, No FA, incubation 8 h
# [7] = Homo sapiens, No FA, incubation 16 h
smiles,measurement,setting,value
"CC[C@]1(O)C[C@H]2CN(CCc3c([nH]c4ccccc34)[C@@](C(=O)OC)(c3cc4c(cc3OC)N(C)[C@@H]3C45CCN4CC=C[C@](CC)([C@H]45)[C@@H](O)[C@]3(O)C(=O)OC)C2)C1 (some centres unmarked) [4-desacetylvinblastine, reference compound]",IC50,"[1]; No FA, incubation 2 h",4.6 µM
same,IC50,"[1]; No FA, incubation 4 h",0.633 µM
same,IC50,"[1]; No FA, incubation 8 h",0.129 µM
same,IC50,"[1]; No FA, incubation 16 h",0.057 µM
same,IC50,"[2]; No FA, incubation 2 h",0.045 µM
same,IC50,"[2]; No FA, incubation 4 h",0.01 µM
same,IC50,"[2]; No FA, incubation 8 h",0.002 µM
same,IC50,"[2]; No FA, incubation 16 h",0.003 µM
"CC[C@]1(O)CC2CN(CCc3c([nH]c4ccccc34)[C@@](C(=O)OC)(c3cc4c(cc3OC)N(C)[C@H]3[C@@](O)(C(=O)OC)[C@H](O[Si]5(CCCCC(=O)OCc6ccccc6)CCCC5)[C@]5(CC)C=CCN6CC[C@]43[C@@H]65)C2)C1 (stereo partly drawn) [Example 12, (3aR,3a^1R,4R,5S,10bR)-methyl 4-((1-(5-(benzyloxy)-5-oxopentyl)silolan-1-yl)oxy)-3a-ethyl-9-((5S,7R,9S)-5-ethyl-5-hydroxy-9-(methoxycarbonyl)-2,4,5,6,7,8,9,10-octahydro-1H-3,7-methano[1]azacycloundecino[5,4-b]indol-9-yl)-5-hydroxy-8-methoxy-6-methyl-3a,3a^1,4,5,5a,6,11,12-octahydro-1H-indolizino[8,1-cd]carbazole-5-carboxylate]",hydrolysis (e.g. parent vinca) at pH 7.4,[3],No evidence of hydrolysis
CCC1(O)CC2CN(CCc3c([nH]c4ccccc34)C(C(=O)OC)(c3cc4c(cc3OC)N(C)C3C(O)(C(=O)OC)C(O[Si]5(CCCCC(=O)NCCOCCOCCNC(=O)CCC(NC(=O)c6ccc(NCc7cnc8nc(N)nc(O)c8n7)cc6)C(=O)O)CCCCC5)C5(CC)C=CCN6CCC43C65)C2)C1 (centres unmarked) [Example 20],Percentage inhibition at the highest concentration tested (10 μM),"[1]; 100 μM FA, incubation 2 h",44%
same,IC50,"[1]; 100 μM FA, incubation 2 h",> 10 µM
same,IC50,"[1]; 100 μM FA, incubation 4 h",6.6 µM
same,IC50,"[1]; 100 μM FA, incubation 8 h",4.1 µM
same,IC50,"[1]; 100 μM FA, incubation 16 h",1.4 µM
same,Percentage inhibition at the highest concentration tested (10 μM),"[1]; No FA, incubation 2 h",20%
same,IC50,"[1]; No FA, incubation 2 h",> 10 µM
same,Percentage inhibition at the highest concentration tested (10 μM),"[1]; No FA, incubation 4 h",46%
same,IC50,"[1]; No FA, incubation 4 h",> 10 µM
same,IC50,"[1]; No FA, incubation 8 h",6.7 µM
same,IC50,"[1]; No FA, incubation 16 h",1.4 µM
same,IC50,"[2]; 100 μM FA, incubation 2 h",4.2 µM
same,IC50,"[2]; 100 μM FA, incubation 4 h",3.4 µM
same,IC50,"[2]; 100 μM FA, incubation 8 h",3.1 µM
same,IC50,"[2]; 100 μM FA, incubation 16 h",1.5 µM
same,IC50,"[2]; No FA, incubation 2 h",3.5 µM
same,IC50,"[2]; No FA, incubation 4 h",2.6 µM
same,IC50,"[2]; No FA, incubation 8 h",1.8 µM
same,IC50,"[2]; No FA, incubation 16 h",0.3 µM
CC[C@]1(O)CC2CN(CCc3c([nH]c4ccccc34)[C@@](C(=O)OC)(c3cc4c(cc3OC)N(C)[C@H]3[C@@](O)(C(=O)OC)[C@H](O[Si]5(CCCCC(=O)NCCOCCOCCOCCNC(=O)CC[C@H](NC(=O)c6ccc(NCc7cnc8nc(N)nc(O)c8n7)cc6)C(=O)O)CCCCC5)[C@]5(CC)C=CCN6CC[C@]43[C@@H]65)C2)C1 (some centres unmarked) [Example 21],Percentage inhibition at the highest concentration tested (10 μM),"[1]; 100 μM FA, incubation 2 h",40%
same,IC50,"[1]; 100 μM FA, incubation 2 h",> 10 µM
same,IC50,"[1]; 100 μM FA, incubation 4 h",8.6 µM
same,IC50,"[1]; 100 μM FA, incubation 8 h",5.3 µM
same,IC50,"[1]; 100 μM FA, incubation 16 h",1.8 µM
same,Percentage inhibition at the highest concentration tested (10 μM),"[1]; No FA, incubation 2 h",8%
same,IC50,"[1]; No FA, incubation 2 h",> 10 µM
same,Percentage inhibition at the highest concentration tested (10 μM),"[1]; No FA, incubation 4 h",24%
same,IC50,"[1]; No FA, incubation 4 h",> 10 µM
same,Percentage inhibition at the highest concentration tested (10 μM),"[1]; No FA, incubation 8 h",47%
same,IC50,"[1]; No FA, incubation 8 h",> 10 µM
same,IC50,"[1]; No FA, incubation 16 h",4.4 µM
same,IC50,"[2]; 100 μM FA, incubation 2 h",6 µM
same,IC50,"[2]; 100 μM FA, incubation 4 h",4 µM
same,IC50,"[2]; 100 μM FA, incubation 8 h",3.1 µM
same,IC50,"[2]; 100 μM FA, incubation 16 h",1.7 µM
same,IC50,"[2]; No FA, incubation 2 h",4.1 µM
same,IC50,"[2]; No FA, incubation 4 h",3.1 µM
same,IC50,"[2]; No FA, incubation 8 h",2.3 µM
same,IC50,"[2]; No FA, incubation 16 h",1.5 µM
"Nc1nc(O)c2nc(CNc3ccc(C(=O)N[C@@H](CCC(=O)NCCOCCOCCNC(=O)CCCC[Si]4(O)CCCCC4)C(=O)O)cc3)cnc2n1 [Compound Z, (S)-2-(4-(((2-amino-4-hydroxypteridin-6-yl)methyl)amino)benzamido)-20-(1-hydroxysilinan-1-yl)-5,16-dioxo-9,12-dioxa-6,15-diazaicosan-1-oic acid triethylammonium salt, reference compound]",IC50,"[1]; 100 μM FA, incubation 2 h",> 10 µM
same,IC50,"[1]; 100 μM FA, incubation 4 h",> 10 µM
same,IC50,"[1]; 100 μM FA, incubation 8 h",> 10 µM
same,IC50,"[1]; 100 μM FA, incubation 16 h",> 10 µM
same,inhibition at 10 µM,"[1]; Homo sapiens, A549, 2 h, 100 μM FA, incubation 2 h",9%
same,inhibition at 10 µM,"[1]; Homo sapiens, A549, 2 h, No FA, incubation 2 h",7%
same,inhibition at 10 µM,"[1]; Homo sapiens, A549, 4 h, 100 μM FA, incubation 4 h",≤ 0%
same,inhibition at 10 µM,"[1]; Homo sapiens, A549, 4 h, No FA, incubation 4 h",≤ 0%
same,inhibition at 10 µM,"[1]; Homo sapiens, A549, 8 h, 100 μM FA, incubation 8 h",≤ 0%
same,inhibition at 10 µM,"[1]; Homo sapiens, A549, 8 h, No FA, incubation 8 h",≤ 0%
same,inhibition at 10 µM,"[1]; Homo sapiens, A549, 16 h, 100 μM FA, incubation 16 h",3.5%
same,inhibition at 10 µM,"[1]; Homo sapiens, A549, 16 h, No FA, incubation 16 h",≤ 0%
same,IC50,[1]; [4],> 10 µM
same,IC50,[1]; [5],> 10 µM
same,IC50,[1]; [6],> 10 µM
same,IC50,[1]; [7],> 10 µM
same,IC50,"[2]; 100 μM FA, incubation 2 h",> 10 µM
same,IC50,"[2]; 100 μM FA, incubation 4 h",> 10 µM
same,IC50,"[2]; 100 μM FA, incubation 8 h",> 10 µM
same,IC50,"[2]; 100 μM FA, incubation 16 h",> 10 µM
same,inhibition at 10 µM,"[2]; Homo sapiens, 2 h, 100 μM FA, incubation 2 h",1%
same,inhibition at 10 µM,"[2]; Homo sapiens, 2 h, No FA, incubation 2 h",≤ 0%
same,inhibition at 10 µM,"[2]; Homo sapiens, 4 h, 100 μM FA, incubation 4 h",≤ 0%
same,inhibition at 10 µM,"[2]; Homo sapiens, 4 h, No FA, incubation 4 h",≤ 0%
same,inhibition at 10 µM,"[2]; Homo sapiens, 8 h, 100 μM FA, incubation 8 h",≤ 0%
same,inhibition at 10 µM,"[2]; Homo sapiens, 8 h, No FA, incubation 8 h",≤ 0%
same,inhibition at 10 µM,"[2]; Homo sapiens, 16 h, 100 μM FA, incubation 16 h",2%
same,inhibition at 10 µM,"[2]; Homo sapiens, 16 h, No FA, incubation 16 h",1%
same,IC50,[2]; [4],> 10 µM
same,IC50,[2]; [5],> 10 µM
same,IC50,[2]; [6],> 10 µM
same,IC50,[2]; [7],> 10 µM

# Reference: US9352049B2, “Ligand-therapeutic agent conjugates, silicon-based linkers, and methods for making and using them” (Albany Molecular Research, Inc., priority 2013, dated 2016)
